Measurements taken from paper PMC10221074, “Functional Profiling of the A-Family of Venom Peptides from the Wolf Spider Lycosa shansia” (Toxins, 2023).

Experiments:
[1] = tested on: Escherichia coli BL21(DE3); experiment: Antibacterial growth assay (OD600); details: for Bacterial growth relative to medium, E. coli, replicate 1 / Bacterial growth relative to medium, E. coli, replicate 2 / Bacterial growth relative to medium, E. coli, replicate 3: OD600, medium = 100, MH II broth, 37 °C, peptide 200 µM mixed 50 µL + 50 µL with bacteria, Figure 7: 48 h; for Bacterial growth relative to medium, E. coli, replicate 1: replicate column 1; for Bacterial growth relative to medium, E. coli, replicate 2: replicate column 2; for Bacterial growth relative to medium, E. coli, replicate 3: replicate column 3
[2] = tested on: Pseudomonas aeruginosa DSM 1117; experiment: Antibacterial growth assay (OD600); details: OD600, medium = 100, MH II broth, 37 °C, peptide 200 µM mixed 50 µL + 50 µL with bacteria, Figure 7: 48 h; for Bacterial growth relative to medium, P. aeruginosa (1117), replicate 1: replicate column 1; for Bacterial growth relative to medium, P. aeruginosa (1117), replicate 2: replicate column 2; for Bacterial growth relative to medium, P. aeruginosa (1117), replicate 3: replicate column 3
Description: (§1) Cryo-conserved cultures of selected bacterial strains (Table 4) were transferred to Tryptic Soy Agar (TSA) plates (Carl Roth) with a sterile inoculation loop, sealed with Parafilm (BEMIS, Neenah, WI, USA), and incubated for 1–2 days at 37 °C depending on growth. Single colonies were picked and transferred into 2–3 mL of the Mueller–Hinton II (MH II) broth (BD, Heidelberg, Germany). The bacteria were cultivated overnight, subcultured on fresh medium and grown for 3–4 h before testing at 37 °C, with shaking at 180 rpm. We measured the optical density at 600 nm (OD600) of 1 mL of the bacterial suspensions in polystyrene cuvettes (SARSTED, Nümbrecht, Germany) using an Ultrospec 10 spectrophotometer (Biochrome, Cambridge, UK). We then diluted them with the MH II medium to the preferred OD600 (Table 2). The peptides were dissolved in DMSO to generate 10 mmol/L stocks and diluted with the MH II medium to 200 µM before the assay. We used 10 µg/mL (~40 µg/mL for S. epidermidis) gentamicin and colistin (Sigma-Aldrich, Taufkirchen, Germany), DMSO and the medium only as controls. The bacteria were transferred to 96-multiwell plates with a final volume of 100 µL per well (50 µL bacterial suspension, and 50 µL test peptide). The OD600 was measured at 0, 24 and 48 h using a BioTek Eon microplate reader followed by analysis with Gen5 v2.09.

[3] = tested on: Pseudomonas aeruginosa DSM 50071; experiment: Antibacterial growth assay (OD600); details: OD600, medium = 100, MH II broth, 37 °C, peptide 200 µM mixed 50 µL + 50 µL with bacteria, Figure 7: 48 h; for Bacterial growth relative to medium, P. aeruginosa (50071), replicate 1: replicate column 1; for Bacterial growth relative to medium, P. aeruginosa (50071), replicate 2: replicate column 2; for Bacterial growth relative to medium, P. aeruginosa (50071), replicate 3: replicate column 3
[4] = tested on: Micrococcus luteus DSM 20030; experiment: Antibacterial growth assay (OD600); details: for Antibacterial activity (in words): M. luteus DSM 20030, growth after 48 h; for Bacterial growth relative to medium, M. luteus, replicate 1 / Bacterial growth relative to medium, M. luteus, replicate 2 / Bacterial growth relative to medium, M. luteus, replicate 3: OD600, medium = 100, MH II broth, 37 °C, peptide 200 µM mixed 50 µL + 50 µL with bacteria, Figure 7: 48 h; for Bacterial growth relative to medium, M. luteus, replicate 1: replicate column 1; for Bacterial growth relative to medium, M. luteus, replicate 2: replicate column 2; for Bacterial growth relative to medium, M. luteus, replicate 3: replicate column 3
Description: as §1

[5] = tested on: Staphylococcus aureus DSM 2569; experiment: Antibacterial growth assay (OD600); details: for Bacterial growth relative to medium, S. aureus, replicate 1 / Bacterial growth relative to medium, S. aureus, replicate 2 / Bacterial growth relative to medium, S. aureus, replicate 3: OD600, medium = 100, MH II broth, 37 °C, peptide 200 µM mixed 50 µL + 50 µL with bacteria, Figure 7: 48 h; for Bacterial growth relative to medium, S. aureus, replicate 1: replicate column 1; for Bacterial growth relative to medium, S. aureus, replicate 2: replicate column 2; for Bacterial growth relative to medium, S. aureus, replicate 3: replicate column 3
[6] = tested on: panel of seven bacterial strains; experiment: Antibacterial growth assay (OD600), statements on the whole panel; format: cell-based; details: growth after 48 h
A/Hessen/1/2003 (H3N2) = format: cell-based, influenza virus
[7] = tested on: B/Malaysia/2506/2004 (B-Mal); format: cell-based, influenza virus
A/Hamburg/05/2009 (H1N1) = format: cell-based, influenza virus
[8] = tested on: Staphylococcus epidermidis DSM 28319; experiment: Antibacterial growth assay (OD600); details: for Bacterial growth relative to medium, S. epidermidis, replicate 1 / Bacterial growth relative to medium, S. epidermidis, replicate 2 / Bacterial growth relative to medium, S. epidermidis, replicate 3: OD600, medium = 100, MH II broth, 37 °C, peptide 200 µM mixed 50 µL + 50 µL with bacteria, Figure 7: 48 h; for Bacterial growth relative to medium, S. epidermidis, replicate 1: replicate column 1; for Bacterial growth relative to medium, S. epidermidis, replicate 2: replicate column 2; for Bacterial growth relative to medium, S. epidermidis, replicate 3: replicate column 3
[9] = tested on: Listeria monocytogenes DSM 20600; experiment: Antibacterial growth assay (OD600); details: for Bacterial growth relative to medium, L. monocytogenes, replicate 1 / Bacterial growth relative to medium, L. monocytogenes, replicate 2 / Bacterial growth relative to medium, L. monocytogenes, replicate 3: OD600, medium = 100, MH II broth, 37 °C, peptide 200 µM mixed 50 µL + 50 µL with bacteria, Figure 7: 48 h; for Bacterial growth relative to medium, L. monocytogenes, replicate 1: replicate column 1; for Bacterial growth relative to medium, L. monocytogenes, replicate 2: replicate column 2; for Bacterial growth relative to medium, L. monocytogenes, replicate 3: replicate column 3

| Sequence | Bacterial growth relative to medium, E. coli, replicate 1 [1] | Bacterial growth relative to medium, E. coli, replicate 2 [1] | Bacterial growth relative to medium, E. coli, replicate 3 [1] | Bacterial growth relative to medium, P. aeruginosa (1117), replicate 1 [2] | Bacterial growth relative to medium, P. aeruginosa (1117), replicate 2 [2] | Bacterial growth relative to medium, P. aeruginosa (1117), replicate 3 [2] | Bacterial growth relative to medium, P. aeruginosa (50071), replicate 1 [3] | Bacterial growth relative to medium, P. aeruginosa (50071), replicate 2 [3] | Bacterial growth relative to medium, P. aeruginosa (50071), replicate 3 [3] | Antibacterial activity (in words) [4] | Bacterial growth relative to medium, M. luteus, replicate 1 [4] | Bacterial growth relative to medium, M. luteus, replicate 2 [4] | Bacterial growth relative to medium, M. luteus, replicate 3 [4] | Bacterial growth relative to medium, S. aureus, replicate 1 [5] | Bacterial growth relative to medium, S. aureus, replicate 2 [5] | Bacterial growth relative to medium, S. aureus, replicate 3 [5] | Antibacterial activity over the panel (in words) [6] | Viability of infected cells relative to aprotinin, Replicate 1 (A/Hessen/1/2003 (H3N2)) | Viability of infected cells relative to aprotinin, Replicate 2 (A/Hessen/1/2003 (H3N2)) | Viability of infected cells relative to aprotinin, Replicate 3 (A/Hessen/1/2003 (H3N2)) | further results |
| --- | --- | --- | --- | --- | --- | --- | --- | --- | --- | --- | --- | --- | --- | --- | --- | --- | --- | --- | --- | --- | --- |
| SLLGLLDVVKNKVGQI [LS-AMP-A5] | 99.4801 | 69.6408 | 26.4544 | 63.186 | 51.5489 | 62.0721 | 93.2773 | 109.79 | 85.8852 | no activity | 73.1884 | 97.1848 | 36.1549 | 55.1989 | 62.917 | 88.627 | inhibited the growth of most of the bacteria except two | 0.17 | 0.06482 | 0.08289 | Viability of infected cells relative to aprotinin, Replicate 4 (A/Hessen/1/2003 (H3N2); […], replicate 4 (additional internal control)): 0.1822; Viability of infected cells relative to aprotinin, Replicate 5 (A/Hessen/1/2003 (H3N2); […], replicate 5 (additional internal control)): 0.1791; Viability of infected cells relative to aprotinin, Replicate 6 (A/Hessen/1/2003 (H3N2); […], replicate 6 (additional internal control)): 0.1761; Viability of infected cells relative to aprotinin, Replicate 1 [7]: 0.1132; Viability of infected cells relative to aprotinin, Replicate 2 [7]: 0.06127; Viability of infected cells relative to aprotinin, Replicate 3 [7]: 0.06301; Viability of infected cells relative to aprotinin, Replicate 1 (A/Hamburg/05/2009 (H1N1)): 0.0613; Viability of infected cells relative to aprotinin, Replicate 2 (A/Hamburg/05/2009 (H1N1)): 0.03494; Viability of infected cells relative to aprotinin, Replicate 3 (A/Hamburg/05/2009 (H1N1)): 0.03984; Bacterial growth relative to medium, S. epidermidis, replicate 1 [8]: 62.884; Bacterial growth relative to medium, S. epidermidis, replicate 2 [8]: 53.6633; Bacterial growth relative to medium, S. epidermidis, replicate 3 [8]: 71.8202; Bacterial growth relative to medium, L. monocytogenes, replicate 1 [9]: 122.608; Bacterial growth relative to medium, L. monocytogenes, replicate 2 [9]: 80.283; Bacterial growth relative to medium, L. monocytogenes, replicate 3 [9]: 61.98 |
| SLLGLLDVVKNKVGQIG [LS-AMP-A4] | 63.5471 | 64.6002 | 38.7121 | 67.901 | 83.7452 | 58.9242 | 97.6103 | 110.944 | 86.4168 | able to decrease the growth | 48.8727 | 93.5811 | 47.3458 | 64.8588 | 69.2609 | 80.5088 | inhibited the growth of most of the bacteria except two | 0.1134 | 0.06953 | 0.04762 | Antibacterial activity (in words) ([1]; E. coli BL21(DE3), growth after 48 h): able to decrease the growth; Antibacterial activity (in words) ([5]; S. aureus DSM 2569, growth after 48 h): able to decrease the growth; Viability of infected cells relative to aprotinin, Replicate 1 [7]: 0.05108; Viability of infected cells relative to aprotinin, Replicate 2 [7]: 0.07356; Viability of infected cells relative to aprotinin, Replicate 3 [7]: 0.0764; Viability of infected cells relative to aprotinin, Replicate 1 (A/Hamburg/05/2009 (H1N1)): 0.03111; Viability of infected cells relative to aprotinin, Replicate 2 (A/Hamburg/05/2009 (H1N1)): 0.02825; Viability of infected cells relative to aprotinin, Replicate 3 (A/Hamburg/05/2009 (H1N1)): 0.01475; Bacterial growth relative to medium, S. epidermidis, replicate 1 [8]: 50.7409; Bacterial growth relative to medium, S. epidermidis, replicate 2 [8]: 49.8658; Bacterial growth relative to medium, S. epidermidis, replicate 3 [8]: 70.1306; Antibacterial activity (in words) ([8]; S. epidermidis DSM 28319, growth after 48 h): able to decrease the growth; Antibacterial activity (in words) ([9]; L. monocytogenes DSM 20600, growth after 48 h): able to decrease the growth; Bacterial growth relative to medium, L. monocytogenes, replicate 1 [9]: 47.529; Bacterial growth relative to medium, L. monocytogenes, replicate 2 [9]: 64.3679; Bacterial growth relative to medium, L. monocytogenes, replicate 3 [9]: 81.7792 |
